This note sets out measurements from US20070270429A1, “Function Inhibitor of Effector Cell” (priority 2003, published 2007).

One test deals with T1, human CCR5 (Homo sapiens, UniProt P51681).
T1 construct: expressed in transfected cells
The test is described as follows: Migration test of human CCR5 expression cell (hCCR5-Ba/F3 cell). The format is cell-based. The following applies: hCCR5-Ba/F3 cells, 3 hours. Here is the method:
The Ba/F3 cell was statically cultured in a CO2 incubator (temperature: 37° C., CO2 concentration: 5%, humidity: 100%) using RPMI-1640 medium (Gibco BRL) containing an antibiotic preparation (Antibiotic-Antimycotic) (final concentration: penicillin G sodium (100 U/ml), streptomycin sulfate (100 μg/ml), amphotericin B (0.25 μg/ml)) (Gibco BRL), fetal bovine serum (FBS) (10%) and interleukin 3 (IL-3) (5 ng/ml) (Pepro Tech, Inc). For the culturing of an external gene stably over-expressing cell, blasticidin (Kaken Pharmaceutical) was added to the above-described medium to a final concentration of 10 μg/ml.
The plasmid for human CCR5 expression (pEF-BOS-bsr′/hCCR5) was made into linear chain by digesting with AatII. The linear-chained plasmid was purified using QIA Quick PCR Purification Kit (QIAGEN) and then transferred into Ba/F3 cell by electroporation (Gene Pulser (BIO RAD) 960 μF/250 V). The cells were inoculated into a 96 well culture plate at a cell density of 1000, 100 or 10 cells/100 μl/well, and 48 hours thereafter, blasticidin was added thereto to a final concentration of 10 μg/ml to carry out cloning of blasticidin resistant strains, thereby establishing a stable over-expression clone capable of expressing the transferred external gene (hCCR5-Ba/F3 cell).
The test was started by superposing the upper chamber on the lower chamber, and the cells were cultured for 3 hours in a CO2 incubator (5% CO2, humidity 95%) kept at 37° C. Outside bottom moiety of the upper chamber was washed out into the lower chamber using 0.5 ml of a washing buffer (phosphate buffered saline (PBS) containing sodium ethylenediaminetetraacetate (EDTA) (2 mM (and FBS (0.1%)), and the number of cells in the lower chamber was counted using a flow cytometer (Becton Dickinson).
The migration inhibition activity by the compounds of the present invention was calculated as the inhibition ratio (%) in accordance with the following formula, in which the value of well to which the medium containing DMSO but not containing the drug to be tested was added was used as the control value (A), and the value of well to which the DMSO-containing medium containing the drug to be tested was added as the value (B). Inhibition ratio (%)=[(A−B)/A]×100

Test [1] concerns human CD4-positive Th1 differentiation cell. The test is described as follows: Cell growth inhibition test of human CD4-positive Th1 differentiation cell (anti-CD3 antibody stimulation, BrdU uptake). The test is classed as cell-based. On the procedure:
After treating the cells with BrdU for a predetermined period of time, the plate was centrifuged (300×g, 10 minutes), and then turned upside down and lightly shaken to remove the labeled medium. The plate was dried (for about 15 minutes) using a hair dryer. A cell fixing and DNA denaturing solution (200 μl, attached to the kit) was added to each well and left alone for 30 minutes. After removing the cell fixing and DNA denaturing solution and further removing water, a peroxidase-labeled anti-BrdU antibody (anti-BrdU-POD reaction solution) (100 μl) (attached to the kit) was added thereto and left alone at room temperature for 90 minutes. The antibody solution was discarded, each well was washed three times with PBS (200 μl), water was discarded, and then the substrate solution (100 μl) (attached to the kit) was added thereto. After carrying out the enzyme reaction for a period of 5 to 30 minutes, 1 N sulfuric acid solution (25 μl) was added thereto and stirred on a shaker. The absorbance of samples was measured by a microplate reader (SPECTRAMAX-PRO) at 450 nm (control wavelength: 690 nm).
The cells fractionated by the method described in the above-described (2-1) were inoculated into a 96 well plate coated with the anti-human CD3 antibody, at a cell density of 2×10^5 cells/100 μl/well, a medium (100 μl) containing 2 times concentration solution of each drug to be tested (contains 0.2% DMSO) was added thereto, and the cells were cultured for 48 hours in a CO2 incubator (5% CO2, humidity 95%) kept at 37° C. The BrdU uptake activity was measured by the method described in the above-described (2-4).
The cell growth inhibition activity of human CD8-positive memory T cell by the compounds of the […] was calculated as the inhibition ratio (%) in accordance with the following formula, in which the value of well to which the medium containing DMSO but not containing the drug to be tested was added was used as the control value (A), and the value of well to which the DMSO-containing medium containing the drug to be tested was added as the value (B). Inhibition ratio (%)=[(A−B)/A]×100 Results:
A heparinized blood sample was collected from a human, healthy volunteer, and peripheral blood mononuclear cell (PBMC) was isolated by the density gradient centrifugation described in the above-described (2-1). CD4-positive T cell was isolated from PBMC by a negative selection method using Human T Cell CD4 Subset Column Kit (R & D Systems, Inc). Specifically, the cells to be removed such as B cell, CD8-positive T cell, monocyte and the like were labeled with antibodies by adding an antibody cocktail (1 ml) (attached to the kit) to PBMC (up to 2×10^8 cells) and incubating at room temperature for 15 minutes. […]

Setting [2] is: MIP-1α 3 nM in lower chamber, read-out: IC50 (nM), migration inhibition, chemokine MIP-1α.
The mark [3] stands for this setting: MIP-1β 3 nM in lower chamber, read-out: IC50 (nM), migration inhibition, chemokine MIP-1β.
Where [4] appears, read: RANTES 3 nM in lower chamber, read-out: IC50 (nM), migration inhibition, chemokine RANTES.

Structures are written as SMILES. Like-named read-outs stand apart in the source and are kept apart here.

T1 sequence (P51681 whole entry): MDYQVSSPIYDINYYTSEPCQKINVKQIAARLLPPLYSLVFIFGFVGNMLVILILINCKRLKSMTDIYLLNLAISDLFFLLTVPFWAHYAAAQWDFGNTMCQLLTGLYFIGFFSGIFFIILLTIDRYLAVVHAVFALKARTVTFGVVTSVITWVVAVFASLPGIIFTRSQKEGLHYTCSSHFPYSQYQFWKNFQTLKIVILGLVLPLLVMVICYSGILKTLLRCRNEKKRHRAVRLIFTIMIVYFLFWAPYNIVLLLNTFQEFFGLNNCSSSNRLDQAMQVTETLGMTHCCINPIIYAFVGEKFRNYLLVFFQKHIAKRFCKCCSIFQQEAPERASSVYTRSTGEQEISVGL

For the compound `CCCCN1C(=O)[C@@H]([C@H](O)C2CCCCC2)NC(=O)C12CCN(Cc1ccc(Cc3ccc(C(=O)O)cc3OC)cc1)CC2` [Compound (b), 4-[4-({(3R)-1-butyl-3-[(R)-cyclohexyl(hydroxy)methyl]-2,5-dioxo-1,4,9-triazaspiro[5.5]undec-9-yl}methyl)benzyl]-3-methoxybenzoic acid], the IC50 on human CCR5 (setting [2]) is 9.8 nM; at human CCR5 (setting [3]) it was 11.1 nM; on human CCR5 (setting [4]), 12.4 nM. The entries for the “inhibition ratio of cell growth” value in test [1] (0.1 μM) and in test [1] (10 μM) were −2.3% and 21.8%, respectively.
For `CCCCN1C(=O)[C@@H]([C@H](O)C2CCCCC2)NC(=O)C12CCN(Cc1ccc(Oc3ccc(C(=O)O)cc3OCC)cc1)CC2.Cl` [Compound (c), 4-[4-({(3R)-1-butyl-3-[(R)-cyclohexyl(hydroxy)methyl]-2,5-dioxo-1,4,9-triazaspiro[5.5]undec-9-yl}methyl)phenoxy]-3-ethoxybenzoic acid hydrochloride] the same measures were 17.3 nM, 18.4 nM, 22.5 nM, 48.3% and 47.7%.
